Results taken from publication PMC4010497, “Synthesis and Evaluation of Fluorine-Substituted Phenyl Acetate Derivatives as Ultra-Short Recovery Sedative/Hypnotic Agents” (PLoS ONE, 2014).

Tested on: rabbits
Assay: Hypnotic potency and recovery after IV bolus in rabbits
Format: in vivo, rabbit
Description: All tests were performed during the light period. Groups of mice, rats and rabbits were injected intravenously (lateral tail vein) over 10 s with each dose of test compound, placed in separate boxes to reduce external stimuli and assessed for the loss of righting reflex. Dosing was performed using mg/kg scheme. A set of dose levels was chosen, and depending on whether the loss of righting reflex was observed, extra doses were introduced to provide data for the loss of righting reflex over a narrow dose range to allow potency calculations.
Immediately following the injection, the mice, rats and rabbits were tested for loss of righting reflex. […] Once a loss was observed, the interval between the loss of righting reflex and the return to righting reflex was recorded. […] To compare the duration of LORR of each compound at equipotent doses, groups of mice, rats and rabbits were injected with each compound at 2× HD50 over 10 s.
Time to walk was the time required after righting before mice and rabbits walked from the center to the periphery of a 30-cm diameter dise.

## CCOc1cc(CC(=O)OCC(F)(F)F)ccc1OCC(=O)N(CC)CC [Compound 5j, 2,2,2-trifluoroethyl 2-(4-(2-(diethylamino)-2-oxoethoxy)-3-ethoxyphenyl)acetate]
2× HD50 dose, mean ± SD
  Duration of LORR: 208.3 ± 19.8 s
  Time to walk: 15.5 ± 7.5 s
IV, 95% confidence limits
  HD50: 6.2 (4.7∼7.0) mg/kg
